From ChEMBL document CHEMBL2074441, “Identification of breast cancer resistant protein/mitoxantrone resistance/placenta-specific, ATP-binding cassette transporter as a transporter of NB-506 and J-107088, topoisomerase I inhibitors with an indolocarbazole structure” (Cancer Res, 2001)

Assays:
[1] = target: T1, Broad substrate specificity ATP-binding cassette transporter ABCG2 (Homo sapiens, UniProt Q9UNQ0); assay: TP_TRANSPORTER: intracellular accumulation in BCRP-transfected PC-13 cells; format: functional, cell-based
T1 sequence (Q9UNQ0 whole entry): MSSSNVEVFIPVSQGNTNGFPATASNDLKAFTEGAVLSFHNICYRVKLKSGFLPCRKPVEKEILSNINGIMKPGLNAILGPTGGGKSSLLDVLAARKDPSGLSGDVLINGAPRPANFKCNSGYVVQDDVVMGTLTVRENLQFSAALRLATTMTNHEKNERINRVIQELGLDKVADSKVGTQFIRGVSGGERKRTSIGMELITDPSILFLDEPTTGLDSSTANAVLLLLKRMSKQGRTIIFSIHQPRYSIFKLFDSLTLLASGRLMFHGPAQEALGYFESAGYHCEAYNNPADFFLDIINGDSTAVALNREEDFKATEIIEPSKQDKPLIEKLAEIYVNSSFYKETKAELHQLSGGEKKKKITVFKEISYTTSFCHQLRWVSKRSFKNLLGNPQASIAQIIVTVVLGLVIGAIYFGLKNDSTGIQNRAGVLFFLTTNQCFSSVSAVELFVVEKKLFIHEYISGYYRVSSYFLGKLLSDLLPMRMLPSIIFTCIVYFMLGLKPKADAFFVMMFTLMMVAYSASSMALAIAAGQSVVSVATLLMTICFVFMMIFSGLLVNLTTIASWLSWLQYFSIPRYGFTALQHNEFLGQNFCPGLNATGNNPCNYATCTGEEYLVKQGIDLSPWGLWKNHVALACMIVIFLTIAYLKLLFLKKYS

[2] = target: T2, Broad substrate specificity ATP-binding cassette transporter ABCG2 (Mus musculus, UniProt Q7TMS5); assay: TP_TRANSPORTER: intracellular accumulation in LY and LY/NR2 cells; format: functional, cell-based
T2 sequence (Q7TMS5 whole entry): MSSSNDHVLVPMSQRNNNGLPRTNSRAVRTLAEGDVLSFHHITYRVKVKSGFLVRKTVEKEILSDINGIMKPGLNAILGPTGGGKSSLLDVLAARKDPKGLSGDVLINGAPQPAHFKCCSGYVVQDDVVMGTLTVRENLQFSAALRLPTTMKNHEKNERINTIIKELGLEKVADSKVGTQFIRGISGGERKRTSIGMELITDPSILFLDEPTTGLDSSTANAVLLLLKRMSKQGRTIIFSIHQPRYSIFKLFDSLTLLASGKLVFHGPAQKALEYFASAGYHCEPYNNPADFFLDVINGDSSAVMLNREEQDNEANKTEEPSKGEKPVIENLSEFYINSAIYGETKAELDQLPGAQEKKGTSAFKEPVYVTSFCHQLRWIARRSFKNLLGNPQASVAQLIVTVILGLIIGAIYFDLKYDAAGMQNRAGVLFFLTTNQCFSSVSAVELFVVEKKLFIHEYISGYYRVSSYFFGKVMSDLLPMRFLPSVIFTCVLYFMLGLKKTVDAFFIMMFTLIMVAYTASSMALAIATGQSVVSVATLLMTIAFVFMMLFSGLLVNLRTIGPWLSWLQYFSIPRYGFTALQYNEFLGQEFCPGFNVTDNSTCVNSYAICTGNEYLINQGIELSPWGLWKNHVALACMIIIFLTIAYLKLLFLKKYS

Row | Activity [2] | SMILES | Activity [1]
1 |  | O=C1c2c(c3c4ccc(O)cc4n([C@@H]4O[C@H](CO)[C@@H](O)[C@H](O)[C@H]4O)c3c3[nH]c4cc(O)ccc4c23)C(=O)N1NC(CO)CO [EDOTECARIN] | substrate [+]
2 | substrate [+] | O=CNN1C(=O)c2c(c3c4cccc(O)c4n([C@@H]4O[C@H](CO)[C@@H](O)[C@H](O)[C@H]4O)c3c3[nH]c4c(O)cccc4c23)C1=O | 
